US20140213779A1, “RIBOSWITCHES” (THE UNIVERSITY OF MANCHESTER, priority 2011, published 2014)
pKd: −log10 of the molar value. Where two headings read alike, the source gives them in different places.

Assays:
M6 riboswitch [1] = experiment: Dual promoter construct, DsRed expression by fluorescence; assay type: cell-based, Escherichia coli; settings: for maximum normalized red fluorescence: Am 0→250 μM
Source text: (§1) Here we show how two mutually orthogonal riboswitches can be independently controlled by varying concentrations of two distinct synthetic inducers, allowing dynamic expression landscapes to be accessed and optimal co-expression stoichiometries to be established. In the first instance a dual promoter system was constructed, in the pBKS vector with the orthogonal M6 riboswitch selected previously (Dixon et al Proc Natl Acad Sci USA 2010, 107, 2830] or Dixon et al Angew. Chem. 2012, 51, 3620-3624. controlling translation of the red fluorescent protein DsRed [Bevis, Nat. Biotech. 20:83 (2002)] in response to the ligand ammeline (Am). The bacteriophage lambda tR1 transcription terminator [Graham. NAR, Vol. 32:3093 (2004] was inserted downstream of DsRed gene, followed by a second lac promoter and the 2-aminopurine (2AP)-responsive parental add A-riboswitch [Dixon et al Proc Natl Acad Sci USA 2010, 107, 2830 & Mandal, Nat Struct Mol Biol 11: 29 (2004)] controlling translation of the green fluorescent protein eGFP (FIG. 34A). Escherichia coli was transformed with this dual promoter construct and expression of DsRed and eGFP genes, was then determined by fluorescence as function of inducer concentrations.
(§2) To explore the capacity of the dual promoter system for controlling the differential expression of DsRed and eGFP, multi-dosage matrix expression analysis was performed where induction factors (IF), the ratio of the maximum ligand-induced protein expression over the basal protein expression level, are determined for a full range of inducer concentrations (FIGS. 34A & B).
(§3) A number of reasons could possibly account for this. Firstly, ribosomal read-through could result in a more efficient initiation of translation at the eGFP RBS. Secondly, riboswitches that control gene expression through changing the accessibility of the RBS (like addA), may also rely on Rho-dependent termination of transcription [Roth, Annu. Rev. Biochem. 78:305 (2009) & Peters Proc. Natl. Acad. Sci. USA 106:15406 (2009)]. In the case of the operon, when both riboswitches are activated by Am and 2AP, ribosomes will be recruited at both RBSs and will occupy the full length of the transcript, blocking Rho binding [Epshtein, Nature 463:245 (2010)]. Consequently the levels of full-length mRNA transcripts in the cell will be higher, than if either or both ligands are absent. Finally protection of the full-length transcript from nuclease degradation by actively translating ribosomes [Deana, Genes Dev. […] Titration of the M6 selective inducer Am (0→250 μM) against the dual promoter in either the absence or presence 2AP (0 or 250 μM) gives dose-dependent protein expression curves for DsRed that are very similar, with maximum normalized red fluorescence (fu/OD620) of 1.1×10^5 and 1.0×10^5 respectively (FIG. 36A). […]

add A-riboswitch = experiment: Dual promoter construct, eGFP expression by fluorescence; assay type: cell-based, Escherichia coli
Source text: as §1, §2
(§4) A number of reasons could possibly account for this. Firstly, ribosomal read-through could result in a more efficient initiation of translation at the eGFP RBS. […] Titration of the M6 selective inducer Am (0→250 μM) against the dual promoter in either the absence or presence 2AP (0 or 250 μM) gives dose-dependent protein expression curves for DsRed that are very similar, with maximum normalized red fluorescence (fu/OD620) of 1.1×10^5 and 1.0×10^5 respectively (FIG. 36A). […]

[2] = test system: intergenic add-A riboswitch; experiment: Operon construct, eGFP expression by fluorescence; assay type: cell-based, Escherichia coli
Source text: In a second series of experiments, a synthetic operon was designed with one promoter driving transcription of a single bicistronic mRNA comprising the M6 riboswitch regulating DsRed, and an intergenic add-A riboswitch controlling a downstream eGFP gene (FIG. 35A). […] Moreover, the maximum DsRed induction factor was 21.2, which is also more than 2-fold higher than the dual promoter system (FIG. 35B). The organisation of M6-DsRed in an operon, permits differential control, but also gives rise to significant amplification of the dynamic range of gene expression (IF), compared with the dual promoter system. […] In this case, eGFP output was clearly dependent on both ligands. A synergistic effect of the two ligands is observed in the induction factor matrix analysis, across a full range of Am and 2AP concentrations (FIG. 35C), with the expression landscape reaching a maximum induction factor of 24.1 in the presence of the highest concentrations of both inducers. […] Similarly no cross-talk is observed with the dual promoter system described above.
as §3, with “(2010)].” for “(2010)]. Consequently the levels of full-length mRNA transcripts in the cell will be higher, than if either or both ligands are absent. Finally protection of the full-length transcript from nuclease degradation by actively translating ribosomes [Deana, Genes Dev.”

M6 = settings: earlier in vitro studies; cited from earlier work
M6″ riboswitch aptamer = experiment: Isothermal titration calorimetry with M6″ aptamer; assay type: binding
Source text: (§5) Re-engineering the adenine responsive add A-riboswitch (addA) from Vibrio vulnificus (FIGS. 27A & B) [Dixon et al Proc Natl Acad Sci USA 2010, 107, 2830].

[3] = test system: addA(wt) riboswitch aptamer; experiment: Isothermal titration calorimetry with AddA(wt) aptamer; assay type: binding, Vibrio vulnificus; settings: ITC, FIG. 59
Source text: Improved 2nd generation ligands have been discovered both in terms of in vivo and in vitro binding affinity.

M6″ riboswitch [4] = experiment: M6″-eGFP construct, GFP expression; assay type: cell-based, E. coli
Source text: as §5
In contrast, the genetic construct of the invention comprises a lac promoter/operator upstream of a 2nd generation riboswitch M6″-eGFP the lac promoter/operator and riboswitch respectively providing direct control of the expression of GFP via transcriptional and translational control.
Both the comparator construct and the genetic construct of the invention were provided on high copy plasmids in Top 10F′.

M6″ riboswitch [5] = test system: M6″ riboswitch
Protocol: (§6) Expression is induced using IPTG (0.5 mM) and increasing concentrations of A43 (respectively 0, 5, 10, 25, 50, 100, 250 uM) shown in the third to eighth columns.

M6″ riboswitch [6] = experiment: T7 RNA polymerase expression under M6″ riboswitch control (spacer constructs); settings: for regulation upon addition of IPTG: IPTG 0.5 mM
Protocol: as §6

M6 riboswitch [7] = experiment: Operon construct, DsRed expression by fluorescence; assay type: cell-based, Escherichia coli
Source text: In a second series of experiments, a synthetic operon was designed with one promoter driving transcription of a single bicistronic mRNA comprising the M6 riboswitch regulating DsRed, and an intergenic add-A riboswitch controlling a downstream eGFP gene (FIG. 35A). […] Moreover, the maximum DsRed induction factor was 21.2, which is also more than 2-fold higher than the dual promoter system (FIG. 35B). The organisation of M6-DsRed in an operon, permits differential control, but also gives rise to significant amplification of the dynamic range of gene expression (IF), compared with the dual promoter system. […] In this case, eGFP output was clearly dependent on both ligands. […]
as §4

AddA riboswitch = experiment: addA-eGFP construct, GFP expression; assay type: cell-based, E. coli
Source text: In the control constructs GFP expression is controlled directly by a lac promoter/operator alone. In contrast, in the gene constructs of the invention GFP expression is controlled by both a lac promoter/operator, and a riboswitch. In this arrangement the lac promoter provides transcriptional control of expression, and the riboswitch provides translational control. […] In this example, the first generation riboswitch comprises AddA (the ligand for which is adenine), and the second generation riboswitch comprises M6″ (the ligand for which is A43).
GFP induction factors (left axis indicated by the green bars) and absolute normalized GFP fluorescence signal (right axis) in the absence of inducer (open shape) and in the presence of inducer (closed shape).

add A = settings: earlier in vitro studies; cited from earlier work
lac promoter/operator = experiment: Control lac P/O construct, GFP expression; assay type: cell-based, E. coli
Source text: FIGS. 52 and 53 illustrate the increased dynamic regulation of expression of a gene of interest (here exemplified by green fluorescent protein) that can be achieved using gene constructs in accordance with the present invention, as compared to comparator (control) constructs. In the control constructs GFP expression is controlled directly by a lac promoter/operator alone. In contrast, in the gene constructs of the invention GFP expression is controlled by both a lac promoter/operator, and a riboswitch. In this arrangement the lac promoter provides transcriptional control of expression, and the riboswitch provides translational control. FIGS. 52 and 53 respectively show data generated by gene constructs of the invention comprising first and second generation riboswitches (referred to respectively as “1st Generation” and “2nd Generation” constructs) when present on high copy plasmids in E. coli Top10F′. In this example, the first generation riboswitch comprises AddA (the ligand for which is adenine), and the second generation riboswitch comprises M6″ (the ligand for which is A43). […]
The induction factor represents the degree to which gene expression is controlled, and is determined from the ratio of the maximum induced protein expression over the basal protein expression level. […]

M6C″ riboswitch aptamer = experiment: Isothermal titration calorimetry with M6C″ aptamer; assay type: binding; settings: ITC, M6C″ aptamer domain
Source text: as §5

M6C″ riboswitch = experiment: M6C″-eGFP riboswitch-reporter construct, gene expression; assay type: cell-based, E. coli
Source text: as §5

## Nc1ncc2[nH]cnc2n1 [2AP, 2-aminopurine]
M6 riboswitch [1]; simultaneous increase in 2AP
  effect upon DsRed induction: essentially no effect
Add A-riboswitch; increasing 2AP
  induction factor, eGFP: 11.3
Add A-riboswitch; unaffected by Am
  maximum eGFP levels: ca. 55×10^6 fu/OD620
[2]; 2AP in the presence of Am (250 μM)
  output, eGFP: 25.9×10^6 fu/OD620
[2]; highest concentrations of both inducers (Am and 2AP)
  maximum induction factor, eGFP: 24.1
[2]; titration of 2AP alone
  maximum output, eGFP: 14.8×10^6 fu/OD620
M6
  binding interaction: no binding interaction

## Nc1nc(N)c2cncnc2n1 [A43, pyrimido[4,5-d]pyrimidine-2,4-diamine]
M6″ riboswitch aptamer; isothermal titration calorimetry, FIG. 59, read-out: Kd
  pKd: 6.72
[3]
  affinity: no affinity
M6″ riboswitch [4]; eGFP expression assay, FIG. 58
  maximum eGFP expression compared with WT: exceeds that of the WT (adddA) with adenine
M6″ riboswitch [4]; in E. coli
  induction of gene expression: 12 fold
M6″ riboswitch [4]; in combination with lac promoter/operator, FIG. 53
  induction of gene expression: > 400 fold
M6″ riboswitch [4]; maximum induced over basal, IPTG plus A43
  induction factor: ~450
M6″ riboswitch [5]; 105 nt spacer, IPTG (0.5 mM) plus A43 (250 uM)
  dynamic range of control (max/un-induced): 134 fold
M6″ riboswitch [5]; sp120
  induction factor above IPTG expression: up to 12 fold
M6″ riboswitch [6]; A43 50, 100, 250, 1000 μM, lac I forward or reverse, FIG. 48
  induction of T7 RNA polymerase (blot): dose-dependent
M6″ riboswitch [6]; pTTv9, A43 2→250 uM, absence and presence of A1 (250 uM)
  regulation of T7RNAP (western blot): dose dependent regulation

## Nc1nc(N)c2nccnc2n1 [A44, 2,4-Diaminopteridine]
M6″ riboswitch aptamer; ITC, FIG. 60, read-out: in vitro binding affinity
  pKd: ~5.70

## Nc1nc(N)[nH]c(=O)n1 [Am, ammeline]
M6″ riboswitch aptamer; ITC, M6″ aptamer domain, read-out: Kd
  pKd: 5.92 to 6.00
M6 riboswitch [1]; absence of 2AP
  maximum normalized red fluorescence: 1.1×10^5 fu/OD620
M6 riboswitch [1]; presence of 2AP 250 μM
  maximum normalized red fluorescence: 1.0×10^5 fu/OD620
M6 riboswitch [1]; increasing Am, co-administration of 2-AP
  maximum induction factor, DsRed: 9.3
Add A-riboswitch; changes in Am concentration
  effect upon induction of eGFP expression: no effect
M6 riboswitch [7]
  maximum DsRed induction factor: 21.2
M6 riboswitch [7]; Am 0→250 μM, presence or absence of 2AP (0 or 250 μM)
  maximum output, DsRed expression: 2.9×10^6 fu/OD620
AddA riboswitch
  response of riboswitch to ligand: does not respond
Add A
  binding interaction: no binding interaction

## CC(C)S[C@@H]1O[C@H](CO)[C@H](O)[C@H](O)[C@H]1O [IPTG]
M6″ riboswitch [4]; riboswitch containing construct, column 2, no riboswitch inducer
  control +/−IPTG: 40 fold
Lac promoter/operator
  induction factor (control +/−IPTG): 4
M6″ riboswitch [6]; sp105
  regulation upon addition of IPTG: 44 fold
M6″ riboswitch [6]; sp120
  regulation upon addition of IPTG: ~1 fold

## Nc1ncnc2nc[nH]c12 [adenine]
M6″ riboswitch aptamer; ITC, M6″ aptamer domain
  affinity: no affinity
M6C″ riboswitch aptamer
  affinity: no affinity
M6″ riboswitch [4]; M6″
  response of riboswitch to ligand: neither responds
M6C″ riboswitch
  response of riboswitch to ligand: neither responds

## Nc1ncnc(=O)[nH]1 [compound 3, azacytosine]
M6C″ riboswitch aptamer
  pKd: 5.92 to 6.00
AddA riboswitch
  response of riboswitch to ligand: does not respond
